In one data set the test system is HCT116 (colon cancer). The data set is described as follows: NCI method SRB growth inhibition, HCT116. Type of data set: cell-based. The settings on record: Homo sapiens, HCT-116; HCT116, treated 48 hours, SRB stain. The method, boiled down:
(§1)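 NCI 60-line protocol, 48 h compound exposure; SRB stain, OD 515 nm. Growth % = (Ti−Tz)/(C−Tz)×100 when Ti≥Tz, else (Ti−Tz)/Tz×100. GI50 at 50, TGI at Ti=Tz, LC50 at −50.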

Data set [1] can be described thus: Liver microsomes stability. The class given is in vitro ADME, human. The settings on record: for half-life at 1 μM: human, human liver microsomes. The method, boiled down:
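Compound at 1 μM final incubated with 1 mg/mL human liver microsomes and 1 mM NADPH (no-NADPH control), sampled at 0, 5, 15, 30, 60 min. Remaining parent quantified by LC-MS/MS; T1/2 = 0.693/k.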

The next data set deals with HS 578T (breast cancer). The data set is described as follows: NCI method SRB growth inhibition, HS 578T. The class given is cell-based. The settings on record: Homo sapiens, HS578T, treated 48 hours, SRB stain. The method, boiled down:
as §1

Data set [2] has as its system A549 (non-small cell lung cancer). The data set is described as follows: NCI method SRB growth inhibition, A549. The class given is cell-based. The settings on record: Homo sapiens; A549, treated 48 hours, SRB stain. The method, boiled down: as §1
Data set [3] has as its system SF295 (central nervous system tumor). The data set is described as follows: NCI method SRB growth inhibition, SF295. The class given is cell-based. The settings on record: Homo sapiens, SF-295; SF295, treated 48 hours, SRB stain. The method, boiled down: as §1
In another data set the test system is K562 (leukemia). Put plainly: NCI method SRB growth inhibition, K562. The settings on record: Homo sapiens; K562, treated 48 hours, SRB stain. Type of data set: cell-based. In short, it runs like this:
as §1

For another data set, the system named is LOX-IMVI (melanoma). Put plainly: NCI method SRB growth inhibition, LOX-IMVI. Type of data set: cell-based. The settings on record: Homo sapiens, treated 48 hours, SRB stain. In short, it runs like this:
as §1

A short description of data set [4]: Metabolic stability in vivo (plasma half-life after IV). The settings on record: mouse, plasma, iv; intravenously at 1 mg/kg, male BALB/c nude mice; read-out: T½ of (IV in nude mice) (converted). On the procedure:
The intravenous injection group of the embodiment compound was prepared with the mixed solvent of DMA:PEG400:30% SBECD=5:25:70 to form a 0.2 mg/mL of solution, and administered intravenously at 1 mg/kg of weight; and the oral preparation group was prepared with 0.5% MC to form a 1 mg/mL of solution, and administered by oral gavage at 10 mg/kg weight.
• Male BALB/c nude mice, 4-5 weeks old, purchased from Shanghai SLAC. 3. Experiment Method: 3.1 Instruments: • Liquid chromatography system: Shimadzu liquid chromatography system Shimadzu LC-30AD • MS/MS system: Applied Biosystems API5500 • Data collection: Analyst Software 1.5.2 3.2 Chromatographic Conditions Chromatographic Column • Analytical column: Kinetex 2.6u C18 100 A column (3.0 mm×30 mm) • Mobile phase: A: 10 mM NH4OAc (0.1% FA); B: Acetonitrile with 0.1% […] • Flow rate: 1.0 mL/min
Ion source was an electron spray ionization (ESI source) with negative ion detection; spray voltage source was 5500 V; ion source gas 1 (N2) was 50 psi; ion source gas 2 (N2) was 50 psi; air curtain gas (N2) was 30 psi. Scanning mode was multiple reaction monitoring (MRM); scanning time was 80 ms; collision gas pressure was 10 psi;
Grouping experiment, with three animals in each group, starting from now on, administration was started according to the weight of the animals. Blood was collected according to 5 min, 15 min, 30 min, 1 h, 2 h, 4 h, 8 h and 24 h after administration.
To 25.0 μL of plasma, 25.0 μL of internal standard solution (Tolbutamide (250 ng/mL) in acetonitrile), 25.0 μL of acetonitrile and 100 μL of acetonitrile were added, and the mixture was vortexed for 1 min, and centrifuged for 5 min (14000 rpm). 120 μL of the resulting supernatant was added with 80.0 μL of water (containing 1% formic acid) and mixed well, then analyzed by LC/MS/MS.

The subject of another data set is 786-0 (renal cancer). The data set is described as follows: NCI method SRB growth inhibition, 786-0. The class given is cell-based. The settings on record: Homo sapiens; 786-0, treated 48 hours, SRB stain. The method, boiled down:
as §1

The subject of another data set is OVCAR-3 (ovarian cancer). The data set is described as follows: NCI method SRB growth inhibition, OVCAR-3. Type of data set: cell-based. The settings on record: Homo sapiens; OVCAR-3, treated 48 hours, SRB stain. In short, it runs like this:
as §1

Setting [5] is: 1 μM compound, 1 mg/mL human liver microsomes, 1 mM NADPH.
Setting [6] is: 1 μM compound, 1 mg/mL human liver microsomes, 1 mM NADPH, read-out: T½ of HLM.
The mark [7] stands for this setting: as repeated in Table 4, read-out: T½ of HLM (in vitro).

Where two headings read alike, the source gives them in different places.

As to `[2H]C([2H])([2H])Oc1cc(C(=O)Nc2cc3c(cc2Oc2cc(C)cc(C)c2)C(=O)N[C@@H](CC(=O)N(C([2H])([2H])C([2H])([2H])[2H])C([2H])([2H])C([2H])([2H])[2H])C(=O)N3)c(Br)c(OC([2H])([2H])[2H])c1OC([2H])([2H])[2H]` [Compound 5, (S)-2-bromo-N-[3-[2-[bis(pentadeuteroethyl)amino]-2-oxoethyl]-7-(3,5-dimethylphenoxy)-2,5-dioxo-2,3,4,5-tetrahydro-1H-benzo[e][1,4]diazepin-8-yl]-3,4,5-tris(trideuteromethoxy)benzamide], the GI50 with HCT116 (colon cancer) is below 5 nM; with HS 578T (breast cancer), below 5 nM; in data set [2] it was below 5 nM; in [3], 17.4 nM; in the data set with K562 (leukemia), below 5 nM; with LOX-IMVI (melanoma), below 5 nM. For the same compound, the GI50 in the data set with 786-0 (renal cancer) was 26.1 nM; in the data set on OVCAR-3 (ovarian cancer) it was below 5 nM. In data set [1] (setting [5]), this compound had a microsomal CLint at 1 μM of 3.2 µL/min/mg. The half-life at 1 μM in data set [1] (setting [6]) and in data set [1] (setting [7]) was 3.62 h each time. Further, the half-life in data set [4] is 1.52 h.

As to `[2H]C([2H])([2H])Oc1cc(C(=O)Nc2cc3c(cc2Oc2cc(C)cc(C)c2)C(=O)N[C@@H](CC(=O)N(C)C)C(=O)N3)c(Br)c(OC([2H])([2H])[2H])c1OC([2H])([2H])[2H]` [Compound 20, (S)-2-bromo-N-[3-[2-(dimethylamino)-2-oxoethyl]-7-(3,5-dimethylphenoxy)-2,5-dioxo-2,3,4,5-tetrahydro-1H-benzo[e][1,4]diazepin-8-yl]-3,4,5-tris(trideuteromethoxy)benzamide], the GI50 is below 5 nM in the data set on HCT116 (colon cancer); below 5 nM in the data set on HS 578T (breast cancer); below 5 nM in data set [2]; 19.9 nM in data set [3]; below 5 nM in the data set with K562 (leukemia); below 5 nM in the data set with LOX-IMVI (melanoma). Further, the GI50 in the data set with 786-0 (renal cancer) is 26.5 nM; with OVCAR-3 (ovarian cancer) it was below 5 nM. Further, in [1] (setting [5]), the microsomal CLint at 1 μM is 2.1 µL/min/mg. Moreover, the half-life at 1 μM in [1] (setting [6]) and in data set [1] (setting [7]) was 5.5 h each time. For the same compound, in data set [4], the half-life was 0.8 h.

In the case of `[2H]C([2H])([2H])Oc1cc(C(=O)Nc2cc3c(cc2Oc2cc(C)cc(C)c2)C(=O)N(C)[C@@H](CC(=O)N(C)C)C(=O)N3)c(Br)c(OC([2H])([2H])[2H])c1OC([2H])([2H])[2H]` [Compound 16, (S)-2-bromo-N-[3-[2-(dimethylamino)-2-oxoethyl]-7-(3,5-dimethylphenoxy)-4-methyl-2,5-dioxo-2,3,4,5-tetrahydro-1H-benzo[e][1,4]diazepin-8-yl]-3,4,5-tris(trideuteromethoxy)benzamide], the GI50 with HCT116 (colon cancer) was below 5 nM; with HS 578T (breast cancer) it was below 5 nM; in [2] it was below 5 nM; in [3], 7.6 nM; with K562 (leukemia), below 5 nM; with LOX-IMVI (melanoma), below 5 nM. The GI50 with 786-0 (renal cancer) is 11.2 nM; with OVCAR-3 (ovarian cancer), below 5 nM. Besides, the microsomal CLint at 1 μM in [1] (setting [5]) amounted to 11.6 µL/min/mg. In addition, the figures for the half-life at 1 μM in [1] (setting [6]) and in [1] (setting [7]) were 0.948 h and 0.997 h, respectively. For the same compound, in [4], the half-life is 0.585 h.

Values taken from patent US12577213B2 (NINGBO COMBIREG PHARMACEUTICAL TECHNOLOGY CO., LTD., priority 2020, dated 2026).
